# Measurements as given in patent US5147876A, “2,6-di,2,4,6-, 2,5,6-tri and 2,4,5,6-tetra-substituted pyrimidines, their pharmaceutically acceptable salts, pharmaceutical compositions containing same and their use in the treatment of neurological diseases” (Mitsui Petrochemical Industries, Ltd., priority 1988, dated 1992).
# Assays:
# mice = test: Acute toxicity on mice; format: in vivo; conditions: 24 hours after administration
# Protocol: (§1) The acute toxicity of the compounds of the invention was examined by the following method.
# (§2) Male ddy-strain 5-week old mice, 4-6- per group, were used as experimental animals. Each of the compounds was intraperitoneally (i.p.), and the toxicity of the compound was assessed 24 hours after the administration.
# [1] = test system: neuro-2a (mouse neuroblastoma cells); test: Action on neuro-2a: proportion of cells containing outgrown neurites; format: cell-based; conditions: mean ± S.D.
# How it was run: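 Mouse neuro-2a cells at 1,000 cells/well in DMEM with 10% FCS were cultured one day at 37 °C, 5% CO2, then glutaraldehyde-fixed and methylene-blue-stained. The proportion of cells bearing a neurite at least twice the cell's long diameter was counted over >200 cells; up to 6 concentrations, triplicate runs.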
# Acute toxicity on mice = format: in vivo; conditions: mouse, in vivo, ip, 24 hours after administration; read-out: Estimated LD50
# Protocol: as §1, §2
# [2] = test system: NS-20Y (mouse neuroblastoma cells); test: Activity on NS-20Y cells: appearance of neurites; format: cell-based
# How it was run: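 Mouse neuroblastoma NS-20Y cells were grown in polyornithine-coated dishes in DMEM with 10 % FCS, 100 units/ml penicillin G sodium and 100 micrograms/ml streptomycin sulfate, at 37° C under 5 % carbon dioxide, and exposed to compound. Cells were fixed with 4 % glutaraldehyde, stained with 0.05 % methylene blue, and the fraction bearing neurites at least twice the cell's long diameter was counted microscopically.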
SMILES,Number of cells having neurites with a length at least two times the diameter of each cell/total number of cells ([1]; 0.03 mM) [%],Number of cells having neurites with a length at least two times the diameter of each cell/total number of cells ([1]; 0.1 mM) [%],Number of cells having neurites with a length at least two times the diameter of each cell/total number of cells ([1]; 0.3 mM) [%],LD50 at 24 h (Acute toxicity on mice) [mg/kg],"Number of cells in which neurites appeared/total number of cells ([2]; 24 hours, 0.1 mM)","Number of cells in which neurites appeared/total number of cells ([2]; 48 hours, 0.1 mM)",other results
COCC(=O)N(C)c1ccnc(N2CCC(c3ccccc3)CC2)n1.Cc1ccc(S(=O)(=O)O)cc1 [Compound 154-2],3.9 ± 0.6,8.9 ± 2.4,,,,,"Estimated LD50 (mice): 500-1000 mg/kg, i.p."
CN(C(=O)c1ccccc1)c1ccnc(N2CCC(c3ccccc3)CC2)n1 [Compound 169],,34.1 ± 5.7,16.6 ± 5.2,,,,"Estimated LD50 (mice): > 1000 mg/kg, i.p."
CN(C(=O)c1ccccc1)c1nccc(N2CCC(c3ccccc3)CC2)n1 [Compound 628],10.2 ± 1.3,13.4 ± 3.2,12.6 ± 3.2,500 to 1000,9/50,3/50,Number of cells having neurites with a length at least two times the diameter of each cell/total number of cells ([1]; 1 mM): 10.0 ± 3.9%
O=C(c1ccccc1)N(Cc1ccccc1)c1nccc(N2CCC(c3ccccc3)CC2)n1 [Compound 660],13.5 ± 1.3,9.1 ± 3.7,,500 to 1000,5/50,4/50,
CN(C(=O)c1ccco1)c1nccc(N2CCC(c3ccccc3)CC2)n1 [Compound 684],5.8 ± 2.0,16.4 ± 2.8,,500 to 1000,2.50,,"Number of cells in which neurites appeared/total number of cells ([2]; 48 hours, 0.05 mM): 2/50; Number of cells having neurites with a length at least two times the diameter of each cell/total number of cells ([1]; 0.01 mM): 3.8 ± 0.5%"
"COC(=O)c1cnc(NC(C)C)nc1C.O=C(O)/C=C\C(=O)O [Compound 804, 2-isopropylamino-4-methyl-5-methoxycarbonylpyrimidine maleate]",,,9.4 ± 1.3,500 to 1000,,,"Number of cells in which neurites appeared/total number of cells ([2]; 24 hours, 0.25 mM): 8/55; Number of cells in which neurites appeared/total number of cells ([2]; 24 hours, 0.5 mM): 7/50; Number of cells in which neurites appeared/total number of cells ([2]; 48 hours, 0.25 mM): 8/50; Number of cells in which neurites appeared/total number of cells ([2]; 48 hours, 0.5 mM): 25/51; Number of cells having neurites with a length at least two times the diameter of each cell/total number of cells ([1]; 0.5 mM): 13.0 ± 2.1%; Number of cells having neurites with a length at least two times the diameter of each cell/total number of cells ([1]; 1 mM): 26.1 ± 6.8%; Number of cells having neurites with a length at least two times the diameter of each cell/total number of cells ([1]; 2 mM): 18.8 ± 3.1%"
CNc1cc(C)nc(N2CCC(c3ccccc3)CC2)n1 [Compound 1090],5.7 ± 0.6,12.2 ± 2.5,10.3 ± 0.9,500 to 1000,21/50,3/50,"Number of cells in which neurites appeared/total number of cells ([2]; 24 hours, 0.02 mM): 4/50; Number of cells having neurites with a length at least two times the diameter of each cell/total number of cells ([1]; 0.01 mM): 3.7 ± 1.0%"
CN1C(=O)Cc2cnc(N3CCN(C(c4ccccc4)c4ccccn4)CC3)nc21 (stereo not shown) [Compound 3192],,9.7 ± 1.1,3.7 ± 3.2,500 to 1000,,,"Number of cells in which neurites appeared/total number of cells ([2]; 24 hours, 0.02 mM): 6/50; Number of cells in which neurites appeared/total number of cells ([2]; 48 hours, 0.02 mM): 4/50"
